Several values for one entry are separate records, joined by “and”; a condition that tells them apart may be missing. Equal values may be shown once. Entries after “also recorded” stand apart in the source; their conditions may differ. Read-outs that look alike come from different tables or passages of the source.

For series [1], the system named is human skin fibroblast cell line (normal human dermal fibroblasts, neonatal). The settings on record: for Cell proliferating activity on human skin fibroblasts (in words): 1×10^−4 M to 1×10^−6 M vs control; for Mean optical density (OD) at 490 nm, cell proliferation / Median optical density (OD) at 490 nm, cell proliferation: 28 hours, serum-free DMEM, n=5.
Protocol: Statistical analyses of data were performed using one-way ANOVA. P<0.05 is considered significant, while P<0.0001 is considered extremely significant and P<0.001 is considered as very very significant.
Series [2] relates to human skin keratinocyte cell line (normal human epidermal keratinocytes, neonatal). Description: Proliferation of human skin keratinocytes (Cell Titer 96, absorbance 490 nm). The format is cell-based. The settings on record: for Cell proliferating activity on human keratinocytes (in words): 1×10^−4 M to 1×10^−6 M vs control; for Mean optical density (OD) at 490 nm, cell proliferation / Median optical density (OD) at 490 nm, cell proliferation: 48 hours, KBM, n=5. The method, then:
In addition, 100 μl of vehicle KBM was added to 5 wells as control. […] The spectrophotometric absorbance of each well was read at 490 nm.

The test system of series [3] is collagen production in the human skin fibroblast cell line. Description: Collagen production in human skin fibroblasts (Takara EIA kit MK101, absorbance 450 nm). The format is cell-based. The settings on record: for Stimulation of collagen production (in words): 1×10^−4 M to 1×10^−6 M vs control; for Mean optical density (OD) at 450 nm, collagen production / Median optical density (OD) at 450 nm, collagen production: 48 hours, n=2. The method, then: The cells were first grown in a 96-well assay system using Dulbecco's Modified Eagle's Medium (DMEM) with 10% fetal bovine serum (FBS) both purchased from Sigma Chemical Co, St. Louis, Mo. Serum-free DMEM was used as a control.
The assay was done by using the recommended 20 ul of the supernatant from each well of the 96-well plate. Standard buffer and stop solutions were freshly prepared before running the assay. 100 ul of antibody-POD conjugate solution (supplied with the kit) was added into the wells using pre antibody coated 96 well plate (supplied with the kit). 20 ul of standard and test solutions (from the other 96-well plate containing fibroblasts) were added to appropriate wells. Plate was mixed gently, sealed and incubated for three hrs. at 37° C.
After incubation each well was washed carefully four times with PBS buffer (400 ul). All the wells were completely emptied at the end of washing from any liquid.
100 ul of substrate solution (hydrogen peroxide and tetramethylbenzidine in a buffer solution, supplied with the kit) was added to each well and the plate was incubated for 15 minutes. At this point 100 ul of stop solution (freshly prepared 1N H2SO4) was added to each well in the same order as substrate. The plate was gently mixed and absorbance was read at 450 nm.

Series [4] relates to fibronectin production in the human skin fibroblast cell line. The series is described as follows: Fibronectin production in human skin fibroblasts (Takara EIA kit MK115, absorbance 450 nm). The format is cell-based. The settings on record: for Stimulation of fibronectin production (in words): 1×10^−4 M to 1×10^−6 M vs control; for Mean optical density (OD) at 450 nm, fibronectin production / Median optical density (OD) at 450 nm, fibronectin production: 48 hours, n=2. The protocol:
The cells were first grown in a 96-well assay system using Dulbecco's Modified Eagle's Medium (DMEM) with 10% fetal bovine serum (FBS) both purchased from Sigma Chemical Co, St. Louis, Mo. Serum-free DMEM was used as a control. […] The fibronectin assay was performed using the recommended 100 μl of the supernatant from each well of the 96-well plate. Standard buffer and stop solutions were freshly prepared before running the assay. A pre-antibody-coated 96 well plate (provided with the kit) was used to transfer the test samples and control. The plate was mixed, sealed and incubated for 1 hour at 37° C. All the wells were washed after removing sample solutions, 3 times (300 μl) with washing buffer. 100 ul of antibody-POD conjugate solution was added into the wells. Plate was mixed, sealed and incubated for one hour at 37° C. Solutions were removed and the wells were washed 3 times with washing buffer. All the wells were completely emptied at the end of washing from any liquid. 100 μl of substrate solution (hydrogen peroxide and tetramethylbenzidine in a buffered solution) was added to each well and the plate was incubated at room temperature for 15 minutes. 100 μl of stop solution (freshly prepared 1N H2SO4) was added to each well in the same order as substrate. The plate was gently mixed and absorbance was read at 450 nm.

The next series has as its system Swiss Albino mice. Description: Wound healing, full thickness skin wounds (3 mm biopsy punch) in mice. The format is in vivo, mouse. The settings on record: topical 5 μl of 0.2% solution, 5 doses Day 0-2, vs control (WFI). The method, then: Twenty, 12-week old Swiss Albino mice were anesthetized with a ketamine/acepromazine cocktail and subjected to four full thickness skin wounds on the dorsolateral surface. […] Jasmonic acid (100 mg) was dissolved in 2 ml ethanol. 200 μl of the resulting solution was then added to 4.8 ml of WFI. Four wounds were made on either side of the spinal column using a 3 mm biopsy punch. To make the wounds, the skin was first tented and the punch was driven through the tented skin to generate both wounds with a single stroke. The upper left quadrant wound site of the animal was assigned to receive the control solution (WFI). […] The wound sites were dosed 5 times (twice on Day 0, Day 1, and once on Day 2). All wounds were treated with 5 μl of test or control solutions. Wounds were allowed to absorb the solutions for 5 minutes before returning the animals to their cages for recovery. All the animals were housed singly. The in-life phase for the animals is 5 days. Each day the wounds on the mice were traced onto glass slides and measured using calipers accurate to the nearest 0.1 mm. Photographs of the wounds were also taken daily for the duration of the study to measure wound size. Means and the standard deviations of the wound diameters for each day were calculated for the healing profile. The effects of the test substances on wound healing were compared to the effects of the control (WFI).

The subject of series [5] is healthy female volunteers. The series is described as follows: Dansyl chloride cell renewal study (stratum corneum renewal time). The format is in vivo, human. The settings on record: topical twice daily for two weeks. From the text:
The stratum corneum renewal time is the time taken for the whole thickness of the stratum corneum to be exfoliated and replaced by new cells from the dividing epidermis. This renewal time is a fundamental indicator of skin health. […] See Jansen L H, Hojyo-Tomoko M T, Kligman A M., Improved fluorescence staining technique for estimating turnover of the human stratum corneum, Br J Dermatol., 90, 9-12, 1974; Ridge B D, Batt M D, Palmer H E, Jarrett A, The dansyl chloride technique for stratum corneum renewal as an indicator of changes in epidermal mitotic activity following topical treatment., Br J Dermatol., 118, 167-74, 1988; Grove G L, Kligman A M, Age-associated changes in human epidermal cell renewal., J Geron., 38, 137-142, 1983. The time required for the dye to disappear is therefore an indication of the turnover time of the stratum corneum. Therefore, any differences in the time required for the dye to disappear from treated and non-treated sites can be considered to be an expression of that product's ability to enhance epidermal renewal.
A dansyl chloride cell renewal study was conducted in healthy female volunteers ranging from 43-64 years of age. The study consisted of a two-week treatment period during which time the products were applied topically twice daily, including on weekend days, to the test sites. The area of application was designated, approximately 5 cm×10 cm on the upper inner arm. The other arm served as a control with no product application. […] Eight females received jasmonic acid and seven females received gibberellic acid.
The time required for a marker dye to disappear was used as the measure of cell renewal rate.

Take `CC(=O)Oc1ccccc1C(=O)O` [acetylsalicylic acid]: the “Cell proliferating activity on human skin fibroblasts (in words)” value in series [1] is on record as “strong cell proliferating activity at all concentrations; also recorded: all concentrations of acetylsalicylic acid had a significant effect on cell growth”. The “Mean optical density (OD) at 490 nm, cell proliferation” value (from here on “Mean optical density (OD) at 490 nm”) stood at 0.5406 in series [1] (1×10^−4 M), 0.6276 in series [1] (1×10^−5 M) and 0.6590 in series [1] (1×10^−6 M). Besides, the “Median optical density (OD) at 490 nm, cell proliferation” value (shortened to “Median optical density (OD) at 490 nm”) in series [1] (1×10^−4 M) is given as 0.5290; in series [1] (1×10^−5 M) it was 0.6270; in series [1] (1×10^−6 M) it was 0.6590.
With `C=C1C[C@]23C[C@@]1(O)CC[C@H]2[C@@]12C=C[C@H](O)[C@@](C)(C(=O)O1)[C@H]2[C@@H]3C(=O)O` [gibberellic acid], the “Cell proliferating activity on human keratinocytes (in words)” value in series [2] was “all concentrations of gibberellic acid had a significant effect on cell growth”; in series [2] (listed as giberrellic acid), “strong cell proliferating activity at all concentrations”. Moreover, the entries for the “Mean optical density (OD) at 490 nm” value in series [2] (1×10^−4 M), in series [2] (1×10^−5 M) and in series [2] (1×10^−6 M) were 0.6512, 0.8184 and 0.7854, respectively. Further, the “Median optical density (OD) at 490 nm” value in series [2] (1×10^−4 M) stood at 0.6510; in series [2] (1×10^−5 M), 0.8210; in series [2] (1×10^−6 M) it was 0.7900. Also, in series [3], the “Stimulation of collagen production (in words)” value was “more profound, particularly at lower, rather than higher, concentrations; also recorded: lower concentrations of gibberellic acid had the most profound effect”. In addition, the “Mean optical density (OD) at 450 nm, collagen production” value in series [3] (1×10^−4 M) stood at 0.7780; in series [3] (1×10^−5 M), 0.8365; in series [3] (1×10^−6 M), 0.8630. For the same compound, the “Median optical density (OD) at 450 nm, collagen production” value is on record as 0.7780 in series [3] (1×10^−4 M), 0.8365 in series [3] (1×10^−5 M) and 0.8630 in series [3] (1×10^−6 M). In addition, in series [4], the “Stimulation of fibronectin production (in words)” value was “effective for stimulating fibronectin production in human fibroblasts; also recorded: Both low and high concentrations of gibberellic acid stimulated fibronectin production”. Also, the “Mean optical density (OD) at 450 nm, fibronectin production” value was determined as 0.2150 in series [4] (1×10^−4 M), 0.2090 in series [4] (1×10^−5 M) and 0.2225 in series [4] (1×10^−6 M). Moreover, the figures for the “Median optical density (OD) at 450 nm, fibronectin production” value in series [4] (1×10^−4 M), in series [4] (1×10^−5 M) and in series [4] (1×10^−6 M) were 0.2150, 0.2090 and 0.2225, respectively. Moreover, the “Effect on wound closure / wound healing (in words)” value in the series with Swiss Albino mice was “accelerated wound healing during the 24 to 48 hrs following treatment”. The “Skin irritation or redness” value in series [5] (0.25% composition) is reported as “no visible sign of any skin irritation or redness”. For the same compound, in series [5] (0.25% in hyaluronic acid (0.5% aqueous solution), upper inner arm, individual patients, listed as GA), the “Time for cell renewal, treated skin (RENEWAL)” value was 21 Days and 14 Days (2×) and 12 Days (2×) and 19 Days and 17 Days.
As to `O=C(O)c1ccccc1O` [salicylic acid], the “Cell proliferating activity on human skin fibroblasts (in words)” value in series [1] is listed as “strong cell proliferating activity especially at the lower concentrations; also recorded: all concentrations of salicylic acid had a significant effect on cell growth”. For the same compound, the “Mean optical density (OD) at 490 nm” value in series [1] (1×10^−4 M) was found to be 0.3916; in series [1] (1×10^−5 M) it was 0.5004; in series [1] (1×10^−6 M), 0.4668. Further, the “Median optical density (OD) at 490 nm” value in series [1] (1×10^−5 M) is listed as 0.5110; in series [1] (1×10^−6 M), 0.4690.
Take zeatin: the “Cell proliferating activity on human keratinocytes (in words)” value in series [2] (listed as t-zeatin) was “strong cell proliferating activity at all concentrations; also recorded: all concentrations of t-zeatin had a significant effect on cell growth”. Besides, the “Mean optical density (OD) at 490 nm” value is given as 0.7726 in series [2] (1×10^−4 M), 0.8716 in series [2] (1×10^−5 M) and 0.9770 in series [2] (1×10^−6 M). Further, the entries for the “Median optical density (OD) at 490 nm” value in series [2] (1×10^−4 M), in series [2] (1×10^−5 M) and in series [2] (1×10^−6 M) were 0.7880, 0.8790 and 0.9830, respectively. The “Stimulation of collagen production (in words)” value in series [3] is “strongly stimulated collagen production at medium concentrations; also recorded: medium concentrations of zeatin also stimulated collagen production”. In addition, the “Mean optical density (OD) at 450 nm, collagen production” value stood at 0.7665 in series [3] (1×10^−4 M), 0.8115 in series [3] (1×10^−5 M) and 0.7715 in series [3] (1×10^−6 M). Besides, the “Median optical density (OD) at 450 nm, collagen production” value in series [3] (1×10^−4 M) was 0.7665; in series [3] (1×10^−5 M), 0.8115; in series [3] (1×10^−6 M), 0.7715. Also, the “Stimulation of fibronectin production (in words)” value in series [4] is recorded as “effective for stimulating fibronectin production in human fibroblasts; also recorded: all compounds stimulated fibronectin production”. For the same compound, the “Mean optical density (OD) at 450 nm, fibronectin production” value in series [4] (1×10^−4 M) was determined as 0.2075; in series [4] (1×10^−5 M), 0.2110; in series [4] (1×10^−6 M) it was 0.1995. Further, the “Median optical density (OD) at 450 nm, fibronectin production” value in series [4] (1×10^−4 M) is 0.2075; in series [4] (1×10^−5 M) it was 0.2110; in series [4] (1×10^−6 M), 0.1995.

The record behind these values is US7608642B2, “Wound and skin care compositions” (Kimberly-Clark Worldwide, Inc., priority 2002, dated 2009).
